Patent US9671406B2, “SPARC and methods of use thereof” (Abraxis BioScience, LLC, priority 2006, dated 2017)

Test system: gp60-mediated caveolar transcytosis
Assay: Inhibition of transport of paclitaxel from ABX across endothelial monolayers
Assay type: cell-based, human
Conditions: FIG. 4
Text: Transport was dependent on albumin.

CCN1C(=O)C=CC1=O [NEM]
effect on transport of paclitaxel from ABX across endothelial monolayers: inhibited

β-methyl cyclodextrin [BMC]
effect on transport of paclitaxel from ABX across endothelial monolayers: inhibited
